From US8227601B2, “Diaryl-purines, azapurines and -deazapurines as non-nucleoside reverse transcriptase inhibitor for treatment of HIV” (priority 2005, dated 2012)
Like-named read-outs stand apart in the source and are kept apart here.

What was measured:
Assay in all cases: microbe, parasite or virus in culture
Type in all cases: cell-based, human immunodeficiency virus type 1 (HIV-1)
HIV-1 L1001-K103N = test system: HIV-1 L1001-K103N
wild type HIV-1 = test system: wild type HIV-1
HIV-1 Y188L = test system: HIV-1 Y188L
HIV-1 Y181C = test system: HIV-1 Y181C
[1] = Human immunodeficiency virus 1, read-out: EC50 L1001-K103N (nM), L1001-K103N mutant
[2] = Human immunodeficiency virus 1, Hela-JC53, read-out: EC50 WT (nM)
[3] = Human immunodeficiency virus 1, read-out: EC50 Y188L (nM)
[4] = Human immunodeficiency virus 1, read-out: EC50 Y181C (nM), Y181C mutant

Row | Compound | EC50 (HIV-1 L1001-K103N; [1]) | EC50 (wild type HIV-1; [2]) | EC50 (HIV-1 Y188L; [3]) | EC50 (HIV-1 Y181C; [4]) | EC50 (HIV-1 L1001-K103N; read-out: EC50 L1001-K103N, L1001-K103N mutant) | EC50 (wild type HIV-1; read-out: EC50 WT, wild-type HIV-1) | EC50 (HIV-1 Y188L; read-out: EC50 Y188L, Y188L mutant) | EC50 (HIV-1 Y181C; read-out: EC50 Y181C, Y181C mutant)
1 | Cc1cc(C)c(Oc2nc(Nc3ccc(C#N)cc3)nc3[nH]ccc23)c(C)c1 [Cpd 1] | 10 to 100 nM | < 10 nM | 10 to 100 nM | 10 to 100 nM |  |  |  | 
2 | Cc1cc(C)c(Sc2nc(Nc3ccc(C#N)cc3)nc3[nH]ccc23)c(C)c1 [Cpd 2] | > 100 nM | < 10 nM | 10 to 100 nM | 10 to 100 nM |  |  |  | 
3 | Cc1cc(C#N)cc(C)c1Oc1nc(Nc2ccc(C#N)cc2)nc2[nH]ccc12 [Cpd 3] | < 10 nM | < 10 nM | < 10 nM | < 10 nM |  |  |  | 
4 | Cc1cc(C)c(Nc2nc(Nc3ccc(C#N)cc3)nc3[nH]ccc23)c(C)c1 [Cpd 4] | 10 to 100 nM | < 10 nM | 10 to 100 nM | 10 to 100 nM |  |  |  | 
5 | Cc1cc(C)c(Oc2nc(Nc3ccc(C#N)cc3)nc3[nH]cnc23)c(C)c1 [Cpd 5] | < 10 nM | < 10 nM | < 10 nM | < 10 nM |  |  |  | 
6 | Cc1cc(Br)cc(C)c1Oc1nc(Nc2ccc(C#N)cc2)nc2[nH]ccc12 [Cpd 6] | 10 to 100 nM | < 10 nM | 10 to 100 nM | 10 to 100 nM |  |  |  | 
7 | Cc1cc(C)c(Oc2nc(Nc3ccc(C#N)cc3)nc3[nH]ncc23)c(C)c1 [Cpd 7] | 10 to 100 nM | < 10 nM | 10 to 100 nM | < 10 nM |  |  |  | 
8 | Cc1cc(Br)cc(Cl)c1Oc1nc(Nc2ccc(C#N)cc2)nc2c1ccn2Cc1ccccc1 [Cpd 8] | > 100 nM | 10 to 100 nM | > 100 nM | > 100 nM |  |  |  | 
9 | Cc1ccc(Oc2nc(Nc3ccc(C#N)cc3)nc3[nH]ccc23)c(C)c1 [Cpd 9] | > 100 nM | < 10 nM | > 100 nM | > 100 nM |  |  |  | 
10 | Cc1cc(Br)cc(Cl)c1Oc1nc(Nc2ccc(C#N)cc2)nc2[nH]ccc12 [Cpd 10] | 10 to 100 nM | < 10 nM | 10 to 100 nM | 10 to 100 nM |  |  |  | 
11 | Cc1cc(Cl)cc(C)c1Oc1nc(Nc2ccc(C#N)cc2)nc2[nH]ccc12 [Cpd 11] | 10 to 100 nM | < 10 nM | < 10 nM | 10 to 100 nM |  |  |  | 
12 | Cc1cc(C)c(Oc2nc(Nc3ccc(S(N)(=O)=O)cc3)nc3[nH]cnc23)c(C)c1 [Cpd 12] | > 100 nM | 10 to 100 nM | > 100 nM | > 100 nM |  |  |  | 
13 | Cc1cc(C#N)cc(C)c1Oc1nc(Nc2ccc(C#N)cc2)nc2c1ccn2C [Cpd 13] | < 10 nM | < 10 nM | < 10 nM | < 10 nM |  |  |  | 
14 | COC(=O)c1ccc(Nc2nc(Oc3c(C)cc(C)cc3C)c3nc[nH]c3n2)cc1 [Cpd 14] | > 100 nM | < 10 nM | > 100 nM | > 100 nM |  |  |  | 
15 | Cc1cc(C)c(Oc2nc(Nc3ccc(C(N)=O)cc3)nc3[nH]cnc23)c(C)c1 [Cpd 15] | > 100 nM | 10 to 100 nM | > 100 nM | > 100 nM |  |  |  | 
16 | Cc1cc(C)c(Oc2nc(Nc3ccc(C(=O)O)cc3)nc3[nH]cnc23)c(C)c1 [Cpd 16] | > 100 nM | > 100 nM | > 100 nM | > 100 nM |  |  |  | 
17 | Cc1cc(C#N)cc(C)c1Oc1nc(Nc2ccc(C#N)cc2)nc2[nH]ncc12 [Cpd 17] | 10 to 100 nM | < 10 nM | < 10 nM | 10 to 100 nM |  |  |  | 
18 | Cc1cc(C)c(Oc2nc(Nc3ccc(C#N)cc3)nc3[nH]cc(Cl)c23)c(C)c1 [Cpd 18] | > 100 nM | 10 to 100 nM | > 100 nM | > 100 nM |  |  |  | 
19 | Cc1cc(C2CC2)cc(C)c1Oc1nc(Nc2ccc(C#N)cc2)nc2[nH]cnc12 [Cpd 19] | 10 to 100 nM | < 10 nM | < 10 nM | < 10 nM |  |  |  | 
20 | Cc1ccc(Nc2nc(Nc3ccc(C#N)cc3)nc3[nH]cnc23)c2ccccc12 [Cpd 20] | > 100 nM | < 10 nM | > 100 nM | 10 to 100 nM |  |  |  | 
21 | N#Cc1ccc(Nc2nc(Oc3ccc(Cl)c4ccccc34)c3nc[nH]c3n2)cc1 [Cpd 21] | > 100 nM | < 10 nM | 10 to 100 nM | 10 to 100 nM |  |  |  | 
22 | N#Cc1ccc(Nc2nc(Nc3ccc(C4CC4)c4ccccc34)c3nc[nH]c3n2)cc1 [Cpd 22] | > 100 nM | < 10 nM | > 100 nM | > 100 nM |  |  |  | 
23 | Cc1cc(C)c(Nc2nc(Nc3ccc(C#N)cc3)nc3[nH]cnc23)c(C)c1 [Cpd 23] | 10 to 100 nM | < 10 nM | < 10 nM | < 10 nM |  |  |  | 
24 | N#Cc1ccc(Nc2nc(Nc3ccc(C#N)cc3)c3nc[nH]c3n2)cc1 [Cpd 24] | > 100 nM | 10 to 100 nM | > 100 nM | > 100 nM |  |  |  | 
25 | Cc1cc(C#N)cc(C)c1Oc1nc(Nc2ccc(C#N)cc2)nc2[nH]cnc12 [Cpd 25] | 10 to 100 nM | < 10 nM | < 10 nM | < 10 nM |  |  |  | 

Row | Compound | EC50 (HIV-1 L1001-K103N; [1]) | EC50 (wild type HIV-1; [2]) | EC50 (HIV-1 Y188L; [3]) | EC50 (HIV-1 Y181C; [4]) | EC50 (HIV-1 L1001-K103N; read-out: EC50 L1001-K103N, L1001-K103N mutant) | EC50 (wild type HIV-1; read-out: EC50 WT, wild-type HIV-1) | EC50 (HIV-1 Y188L; read-out: EC50 Y188L, Y188L mutant) | EC50 (HIV-1 Y181C; read-out: EC50 Y181C, Y181C mutant)
26 | CCn1ccc2c(Oc3c(C)cc(C#N)cc3C)nc(Nc3ccc(C#N)cc3)nc21 [Cpd 26] | > 100 nM | < 10 nM | 10 to 100 nM | 10 to 100 nM |  |  |  | 
27 | Cc1cc(C2CC2)cc(Cl)c1Nc1nc(Nc2ccc(C#N)cc2)nc2[nH]cnc12 [Cpd 27] | 10 to 100 nM | < 10 nM | 10 to 100 nM | 10 to 100 nM |  |  |  | 
28 | Cc1cc(C2CC2)cc(C)c1Nc1nc(Nc2ccc(C#N)cc2)nc2[nH]cnc12 [Cpd 28] | 10 to 100 nM | < 10 nM | 10 to 100 nM | < 10 nM |  |  |  | 
29 | N#Cc1ccc(Nc2nc(Nc3ccc4c(c3)CCC4)c3nc[nH]c3n2)cc1 [Cpd 29] | > 100 nM | < 10 nM | > 100 nM | > 100 nM |  |  |  | 
30 | Cc1ccc2cccc(Nc3nc(Nc4ccc(C#N)cc4)nc4[nH]cnc34)c2n1 [Cpd 30] | > 100 nM | > 100 nM | > 100 nM | > 100 nM |  |  |  | 
31 | Cc1cc(C)c(Oc2nc(Nc3ccc(C#N)cc3)nc3[nH]cnc23)c(C)c1 [Cpd 31] |  |  |  |  | 10 to 100 nM | < 10 nM | < 10 nM | 10 to 100 nM
32 | Cc1ccc2ccccc2c1Nc1nc(Nc2ccc(C#N)cc2)nc2[nH]cnc12 [Cpd 32] | > 100 nM | < 10 nM | > 100 nM | 10 to 100 nM |  |  |  | 
33 | Cc1cc(C2CC2)cc(C)c1Oc1nc(Nc2ccc(C#N)cc2)nc2[nH]ccc12 [Cpd 33] | 10 to 100 nM | < 10 nM | 10 to 100 nM | 10 to 100 nM |  |  |  | 
34 | Cc1cc(C)c(Oc2nc(Nc3ccc(F)cc3)nc3[nH]cnc23)c(C)c1 [Cpd 34] | 10 to 100 nM | < 10 nM | 10 to 100 nM | < 10 nM |  |  |  | 
35 | COc1ccc(Nc2nc(Oc3c(C)cc(C)cc3C)c3nc[nH]c3n2)cc1 [Cpd 35] | > 100 nM | < 10 nM | > 100 nM | 10 to 100 nM |  |  |  | 
36 | Cc1cc(C)c(Oc2nc(Nc3cccc(C#N)c3)nc3[nH]cnc23)c(C)c1 [Cpd 36] | > 100 nM | < 10 nM | > 100 nM | 10 to 100 nM |  |  |  | 
37 | Cc1cc(C)c(Oc2nc(Nc3ccc(C#N)cc3)nc3cc[nH]c23)c(C)c1 [Cpd 37] | < 10 nM | < 10 nM | < 10 nM | < 10 nM |  |  |  | 
38 | Cc1cc(C)c(Oc2nc(Nc3ccc(C(F)(F)F)cc3)nc3[nH]cnc23)c(C)c1 [Cpd 38] | > 100 nM | 10 to 100 nM | > 100 nM | > 100 nM |  |  |  | 
39 | Cc1cc(C)c(Oc2nc(Nc3cccc(C(F)(F)F)c3)nc3[nH]cnc23)c(C)c1 [Cpd 39] | > 100 nM | > 100 nM | > 100 nM | > 100 nM |  |  |  | 
40 | Cc1cc(C)c(Oc2nc(Nc3ccc(C#N)c(C(F)(F)F)c3)nc3[nH]cnc23)c(C)c1 [Cpd 40] | 10 to 100 nM | 10 to 100 nM | > 100 nM | 10 to 100 nM |  |  |  | 
41 | Cc1cc(C#N)cc(C)c1Oc1nc(Nc2ccc(C#N)cc2)nc2ccn(Cc3ccccc3)c12 [Cpd 41] | 10 to 100 nM | < 10 nM | 10 to 100 nM | < 10 nM |  |  |  | 
42 | Cc1cc(C#N)cc(C)c1Oc1nc(Nc2ccc(C#N)cc2)nc2cc[nH]c12 [Cpd 42] | < 10 nM | < 10 nM | < 10 nM | < 10 nM |  |  |  | 
43 | CCCc1nn(C)c2c(Oc3c(C)cc(C)cc3C)nc(Nc3ccc(C#N)cc3)nc12 [Cpd 43] | 10 to 100 nM | 10 to 100 nM | > 100 nM | 10 to 100 nM |  |  |  | 
44 | Cc1cc(C)c(Oc2nc(Nc3ccc(C4CC4)cc3)nc3[nH]cnc23)c(C)c1 [Cpd 44] | > 100 nM | 10 to 100 nM | > 100 nM | > 100 nM |  |  |  | 
45 | Cc1cc(C)c(Oc2nc(Nc3ccc(C#N)cc3)nc3c2ncn3C)c(C)c1 [Cpd 45] | 10 to 100 nM | < 10 nM | < 10 nM | < 10 nM |  |  |  | 
46 | CCN(c1ccc(C#N)cc1)c1nc(Oc2c(C)cc(C#N)cc2C)c2c(ccn2CC)n1 [Cpd 46] | > 100 nM | > 100 nM | > 100 nM | > 100 nM |  |  |  | 
47 | Cc1cc(C2CC2)cc(C)c1Oc1nc(Nc2ccc(C#N)cc2)nc2ccn(Cc3ccccc3)c12 [Cpd 47] | > 100 nM | 10 to 100 nM | > 100 nM | 10 to 100 nM |  |  |  | 
48 | Cc1cc(C)c(Sc2nc(Nc3ccc(C#N)cc3)nc3ccn(Cc4ccccc4)c23)c(C)c1 [Cpd 48] | > 100 nM | 10 to 100 nM | > 100 nM | 10 to 100 nM |  |  |  | 
49 | Cc1cc(C#N)cc(C)c1Oc1nc(Nc2ccc(C#N)cc2)nc2c(Cl)c[nH]c12 [Cpd 49] | < 10 nM | < 10 nM | < 10 nM | < 10 nM |  |  |  | 
50 | COc1cc(C)cc(OC)c1Oc1nc(Nc2ccc(C#N)cc2)nc2[nH]cnc12 [Cpd 50] | > 100 nM | < 10 nM | 10 to 100 nM | < 10 nM |  |  |  | 
